Source: ChEMBL document CHEMBL1126708, “Inhibitors of acyl-CoA:cholesterol acyltransferase (ACAT). 2. Modification of fatty acid anilide ACAT inhibitors: bioisosteric replacement of the amide bond” (J Med Chem, 1993)

Assays:
[1] = target: O-acyltransferase (Oryctolagus cuniculus, UniProt G1SFD9); assay: Acyl coenzyme A:cholesterol acyltransferase (ACAT), inhibition by incubation with [1-14C]oleolyl-CoA and intestinal microsomes isolated from intestinal mucosa of cholesterol-fed rabbits
[2] = system: Rattus norvegicus; assay: In vivo change in plasma total cholesterol in cholic acid (0.3%)-cholesterol (1.5%)-peanut oil(5.5%) fed rats dosed at 0.05% of diet.
[3] = Tested in vivo for plasma total cholesterol(TC) in cholic acid (0.3%)-cholesterol (1.5%)-peanut oil (5.5%) fed rats; assay type: functional
[4] = target: T1, Acyl-CoA:cholesterol acyltransferase (Oryctolagus cuniculus) (UniProt Q95214); assay: Tested in vitro against intestinal Acyl coenzyme A:cholesterol acyltransferase by incubation with [1-14C]oleolyl-CoA in intestinal microsomes isolated from intestinal mucosa of cholesterol-fed rabbits; conditions: Microsome, concentration not given here
T1 sequence (whole entry): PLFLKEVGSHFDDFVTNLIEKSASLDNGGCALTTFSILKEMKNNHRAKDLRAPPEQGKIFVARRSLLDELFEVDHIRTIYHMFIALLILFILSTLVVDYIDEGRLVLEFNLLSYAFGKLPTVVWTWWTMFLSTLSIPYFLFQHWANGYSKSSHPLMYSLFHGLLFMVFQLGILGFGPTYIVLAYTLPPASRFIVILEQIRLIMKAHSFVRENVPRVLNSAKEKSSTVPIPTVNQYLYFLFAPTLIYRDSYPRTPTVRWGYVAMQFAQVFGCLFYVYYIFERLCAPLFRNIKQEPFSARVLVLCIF

Sequence of O-acyltransferase (G1SFD9 1-524): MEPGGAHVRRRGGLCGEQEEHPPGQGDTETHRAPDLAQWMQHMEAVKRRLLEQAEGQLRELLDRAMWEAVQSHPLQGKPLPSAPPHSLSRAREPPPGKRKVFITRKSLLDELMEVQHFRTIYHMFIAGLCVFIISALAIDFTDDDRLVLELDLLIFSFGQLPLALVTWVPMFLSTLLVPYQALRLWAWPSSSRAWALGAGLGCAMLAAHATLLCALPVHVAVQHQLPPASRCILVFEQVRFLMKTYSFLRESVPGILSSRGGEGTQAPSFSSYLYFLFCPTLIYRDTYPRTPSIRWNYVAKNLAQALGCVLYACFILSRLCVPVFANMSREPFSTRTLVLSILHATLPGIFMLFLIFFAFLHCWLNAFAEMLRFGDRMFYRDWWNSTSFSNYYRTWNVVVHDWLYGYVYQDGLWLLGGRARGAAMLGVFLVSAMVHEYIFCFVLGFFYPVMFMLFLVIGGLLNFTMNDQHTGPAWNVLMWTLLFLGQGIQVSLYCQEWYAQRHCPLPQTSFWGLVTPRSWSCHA

SMILES | IC50 [1] | other results
CCCCCCCCCCCCCCCCCCSc1c(C)cccc1C | > 10000 nM | 
CCCCCCCCCCC(CC)(CC)CNC(=O)Nc1c(C(C)C)cccc1C(C)C | 50 nM | 
CCCCCCCC/C=C/CCCCCCCC(=O)Nc1c(OC)cc(OC)cc1OC | 44 nM | Change [2]: -38%
CCCCCCCCCCNC(=O)Nc1c(CC)cccc1C(C)C | 87 nM | Change [2]: -61%
CNC(=O)Nc1c(C(C)C)cccc1C(C)C | > 5000 nM | 
CCCCCCCCCCCCCCCCCCNC(=O)NCc1c(OC)cc(OC)cc1OC | > 5000 nM | 
CCCCCCCC/C=C\CCCCCCC/C(S)=N/c1c(OC)cc(OC)cc1OC | 900 nM | Change [2]: -22%
CCCCCCCCCCCCCCCCCCSC(=O)Nc1c(C)cccc1C | > 10000 nM | 
CCCCCCCCCCC1(NC(=O)Nc2c(CC)cccc2CC)CCCC1 | 110 nM | 
CCCCCCCCCCC(C)(C)NC(=O)Nc1c(CC)cccc1CC | 52 nM | Change [2]: -60%
CCCCCCCC/C=C\CCCCCCCC/N=C(\S)Nc1c(C)cccc1C |  | Change [2]: -17%
CCCCCCCCCCC(C)(C)CNC(=O)Nc1c(C(C)C)cccc1C(C)C | 47 nM | 
CCCCCCCCCCCCCCCCCCNC(=O)Sc1c(C)cccc1C | 2460 nM | 
CCCCCCCCCCCCCCCCCCOc1c(C)cccc1C | > 10000 nM | 
CCCCCCCCCCCCCCCCCC(=O)Oc1c(C)cccc1C | > 10000 nM | 
CCCCCCCCCCNC(=O)Nc1c(C)cccc1C(C)(C)C | 200 nM | 
CCCCCCCCCCCCCCCCCCOC(=O)Nc1c(C)cccc1C | > 10000 nM | 
CCCCCCCC/C=C\CCCCCCCC(=O)c1c(OC)cc(OC)cc1OC | > 50000 nM | 
CCCCCCCCCCCCCCNC(=O)Nc1c(F)cc(F)cc1F | 250 nM | 
CCCCCCCCCCCCCCCCCCOC(=O)Nc1c(OC)cc(OC)cc1OC | 7100 nM | 
CCCCCCCC/C=C\CCCCCCCC(=O)Nc1c(C)cccc1C |  | Change [2]: -38%

SMILES | IC50 [1] | other results
CCCCCCCC/C=C\CCCCCCCCOC(=O)Nc1c(OC)cc(OC)cc1OC | 860 nM | 
CCCCCCCCCCCCCCCCC(C)(C)CNC(=O)Nc1c(C(C)C)cccc1C(C)C | 73 nM | 
CCCCNC(=O)Nc1c(C(C)C)cccc1C(C)C | 630 nM | 
CCCCCCCCCCC(C)(C)NC(=O)Nc1ccccc1CC | 500 nM | 
CCCCCCCC/C=C\CCCCCCCC(O)c1c(OC)cc(OC)cc1OC (configuration not stated) |  | inhibition [4]: 6%
CCCCCCCCCCNC(=O)Nc1c(C)cccc1C(C)C | 210 nM | 
CCCCCCCCCCC1(NC(=O)Nc2c(C(C)C)cccc2C(C)C)CCCC1 | 46 nM | Change [2]: -53%
CCCCCCCCCCNC(=O)Nc1c(C(C)C)cccc1C(C)C | 56 nM | Change [2]: -64%
CCCCCCCC/C=C\CCCCCCCC(=O)NCc1c(OC)cc(OC)cc1OC | 6800 nM | 
CCCCCCCC/C=C\CCCCCCCCOC(=O)c1c(OC)cc(OC)cc1OC | > 5000 nM | 
CCCCCCCCCCCCCCCCCCSC(=O)Nc1c(OC)cc(OC)cc1OC | 5700 nM | 
CCCCCCCC/C=C\CCCCCCCCNCc1c(OC)cc(OC)cc1OC | > 100000 nM | 
CCCCCCCCCCCCCCNC(=O)Nc1cccc(C(F)(F)F)c1 | > 2500 nM | 
CCCCCCNC(=O)Nc1c(C(C)C)cccc1C(C)C | 99 nM | 
CCCCCCCCCCCCCCCCCC[S+]([O-])c1c(C)cccc1C (configuration not stated) | > 10000 nM | 
CCCCCCCCCCCCCCCCS(=O)(=O)Nc1c(OC)cc(OC)cc1OC | 690 nM | 
CCCCCCCCCC(C)(C)CNC(=O)Nc1c(C(C)C)cccc1C(C)C | 46 nM | 
CCCCCCCCCCC(C)(C)NC(=O)Nc1c(C(C)C)cccc1C(C)C | 45 nM | Change [2]: -60%
CCCCCCCCCCCCCCCCCCNC(=O)Nc1c(OC)cc(OC)cc1OC | 900 nM | 
CCCCCCCCCCCCCCCCCCNC(=O)Nc1c(C(C)C)cccc1C(C)C | 48 nM | Change [2]: -7%
CCCCCCCCCCCCCCCCCC(=O)Nc1c(OC)cc(OC)cc1OC |  | Change [2]: -11%

More lines, main results first:

IC50 [1] | SMILES | other results
610 nM | CCCCCCCCCCCCCCCCCCNC(=O)Nc1c(C)cccc1C | 
980 nM | CCCCCCCC/C=C\CCCCCCCCNC(=O)Nc1ccccc1CC | Change [2]: -28%
3100 nM | CCCCCCCCCCCCCCCCCCNC(=O)Oc1c(C)cccc1C | 
37 nM | CCCCCCCC/C=C\CCCCCCCCNC(=O)Nc1c(CC)cccc1C(C)C | Change [2]: -41%
21 nM | CCCCCCCCCCCCCCNC(=O)Nc1c(CC)cccc1CC | Change [2]: -38%
340 nM | CCCCCCCCCCCCCCNC(=O)Nc1ccc(F)cc1F | 
5400 nM | CCCCCCCC/C=C\CCCCCCCCNC(=O)Nc1ccc(OC)cc1OC | 
1100 nM | CCCCCCCCCCCCCCCCCCNC(=O)Nc1c(C)cccc1Cl | 
2900 nM | CCCCCCCC/C=C\CCCCCCCCNC(=O)Nc1c(C)cc(C)cc1C | 
> 10000 nM | CCCCCCCC/C=C\CCCCCCCC(=O)Oc1c(C)cccc1C | 
180 nM | CCCCCCCC/C=C\CCCCCCCCNC(=O)Nc1c(C)cccc1Cl | Change [2]: -42%
4500 nM | CCCCCCCC/C=C\CCCCCCCCNC(=O)Nc1cc(C)ccc1C | 
> 5000 nM | CCCCCCCC/C=C\CCCCCCCCNC(=O)Nc1ccc(C)cc1C | 
28 nM | CCCCCCCC/C=C\CCCCCCCCNC(=O)Nc1c(C(C)C)cccc1C(C)C | Change [2]: -45%
320 nM | CCCCCCCC/C=C\CCCCCCCCNC(=O)Nc1c(OC)cc(OC)cc1OC | Change [3]: -25%
9400 nM | CCCCCCCC/C=C\CCCCCCCCNC(=O)c1c(OC)cc(OC)cc1OC | 

IC50 [1] | SMILES | other results
> 5000 nM | CCCCCCCC/C=C\CCCCCCCCNC(=O)Nc1ccc(Oc2ccccc2)cc1 | 
520 nM | CCCCCCCCCCCCCCNC(=O)Nc1c(Br)cc(CC)cc1Br | 
4700 nM | CCCCCCCC/C=C\CCCCCCCCNC(=O)Nc1ccc(F)cc1F | 
400 nM | CCCCCCCC/C=C\CCCCCCCCNC(=O)Nc1c(Cl)cccc1Cl | Change [2]: -47%
160 nM | CCCCCCCC/C=C\CCCCCCCCNC(=O)Nc1c(C)cccc1C | Change [2]: -55%
3300 nM | CCCCCCCC/C=C\CCCCCCCCNC(=O)Nc1ccccc1OC | 
> 10000 nM | CCCCCCCCCCCCCCCCCCNC(=O)c1c(C)cccc1C | 
43 nM | CCCCCCCC/C=C\CCCCCCCCNC(=O)Nc1c(CC)cccc1CC | Change [2]: -26%
1200 nM | CCCCCCCC/C=C\CCCCCCCCNC(=O)Nc1c(Cl)cc(Cl)cc1Cl | 
70 nM | CCCCCCCCCCCCCCNC(=O)Nc1c(C)cccc1Cl | Change [2]: 0%
> 5000 nM | CCCCCCCC/C=C\CCCCCCCCNC(=O)Nc1ccccc1 | 
100 nM | CCCCCCCCCCNC(=O)Nc1c(CC)cccc1CC | 
18 nM | CCCCCCCCCCCCCCNC(=O)Nc1c(CC)cccc1C(C)C | Change [2]: -41%
5400 nM | CCCCCCCC/C=C\CCCCCCCCNC(=S)Nc1c(C)cccc1C | 
9800 nM | CCCCCCCC/C=C\CCCCCCCCNC(=O)c1c(C)cccc1C | 
